From the CheMixHub viscosity set
± gives the uncertainty stated by the source.

Experiment: xn = mol fraction of the nth substance listed

CN(C)C=O + Cc1ccccc1
viscosity (293.15 K, 101 kPa, x1 = 0.0501): 0.592 ± 0.032 mPa·s
viscosity (293.15 K, 101 kPa, x1 = 0.1001): 0.607 ± 0.032 mPa·s
viscosity (293.15 K, 101 kPa, x1 = 0.22): 0.641 ± 0.034 mPa·s
viscosity (293.15 K, 101 kPa, x1 = 0.3122): 0.668 ± 0.035 mPa·s
viscosity (293.15 K, 101 kPa, x1 = 0.4002): 0.693 ± 0.036 mPa·s
viscosity (293.15 K, 101 kPa, x1 = 0.5002): 0.721 ± 0.037 mPa·s
viscosity (293.15 K, 101 kPa, x1 = 0.6111): 0.751 ± 0.039 mPa·s
viscosity (293.15 K, 101 kPa, x1 = 0.7003): 0.775 ± 0.04 mPa·s
viscosity (293.15 K, 101 kPa, x1 = 0.8122): 0.805 ± 0.041 mPa·s
viscosity (293.15 K, 101 kPa, x1 = 0.9002): 0.828 ± 0.042 mPa·s
viscosity (298.15 K, 101.3 kPa, x1 = 0.1224): 0.584 ± 0.009 mPa·s
viscosity (298.15 K, 101.3 kPa, x1 = 0.2414): 0.612 ± 0.01 mPa·s
viscosity (298.15 K, 101.3 kPa, x1 = 0.3485): 0.639 ± 0.01 mPa·s
viscosity (298.15 K, 101.3 kPa, x1 = 0.4031): 0.654 ± 0.01 mPa·s
viscosity (298.15 K, 101.3 kPa, x1 = 0.5545): 0.699 ± 0.01 mPa·s
viscosity (298.15 K, 101.3 kPa, x1 = 0.657): 0.723 ± 0.011 mPa·s
viscosity (298.15 K, 101.3 kPa, x1 = 0.7413): 0.742 ± 0.011 mPa·s
viscosity (298.15 K, 101.3 kPa, x1 = 0.8336): 0.764 ± 0.011 mPa·s
viscosity (298.15 K, 101.3 kPa, x1 = 0.9129): 0.781 ± 0.011 mPa·s
viscosity (303.15 K, 101.3 kPa, x1 = 0.1224): 0.55 ± 0.009 mPa·s
viscosity (303.15 K, 101.3 kPa, x1 = 0.2414): 0.576 ± 0.009 mPa·s
viscosity (303.15 K, 101.3 kPa, x1 = 0.3485): 0.601 ± 0.01 mPa·s
viscosity (303.15 K, 101.3 kPa, x1 = 0.4031): 0.615 ± 0.01 mPa·s
viscosity (303.15 K, 101.3 kPa, x1 = 0.5545): 0.657 ± 0.01 mPa·s
viscosity (303.15 K, 101.3 kPa, x1 = 0.657): 0.68 ± 0.01 mPa·s
viscosity (303.15 K, 101.3 kPa, x1 = 0.7413): 0.698 ± 0.01 mPa·s
viscosity (303.15 K, 101.3 kPa, x1 = 0.8336): 0.718 ± 0.011 mPa·s
viscosity (303.15 K, 101.3 kPa, x1 = 0.9129): 0.735 ± 0.011 mPa·s
viscosity (303.15 K, 101.33 kPa, x1 = 0.1037): 0.542 ± 0.004 mPa·s
viscosity (303.15 K, 101.33 kPa, x1 = 0.1731): 0.556 ± 0.004 mPa·s
viscosity (303.15 K, 101.33 kPa, x1 = 0.2947): 0.581 ± 0.005 mPa·s
viscosity (303.15 K, 101.33 kPa, x1 = 0.3985): 0.602 ± 0.005 mPa·s
viscosity (303.15 K, 101.33 kPa, x1 = 0.4729): 0.618 ± 0.005 mPa·s
viscosity (303.15 K, 101.33 kPa, x1 = 0.6004): 0.645 ± 0.005 mPa·s
viscosity (303.15 K, 101.33 kPa, x1 = 0.7147): 0.67 ± 0.005 mPa·s
viscosity (303.15 K, 101.33 kPa, x1 = 0.7974): 0.688 ± 0.005 mPa·s
viscosity (303.15 K, 101.33 kPa, x1 = 0.8981): 0.712 ± 0.005 mPa·s
viscosity (308.15 K, 101.3 kPa, x1 = 0.1224): 0.518 ± 0.009 mPa·s
viscosity (308.15 K, 101.3 kPa, x1 = 0.2414): 0.541 ± 0.009 mPa·s
viscosity (308.15 K, 101.3 kPa, x1 = 0.3485): 0.565 ± 0.009 mPa·s
viscosity (308.15 K, 101.3 kPa, x1 = 0.4031): 0.578 ± 0.009 mPa·s
viscosity (308.15 K, 101.3 kPa, x1 = 0.5545): 0.617 ± 0.01 mPa·s
viscosity (308.15 K, 101.3 kPa, x1 = 0.657): 0.638 ± 0.01 mPa·s
viscosity (308.15 K, 101.3 kPa, x1 = 0.7413): 0.655 ± 0.01 mPa·s
viscosity (308.15 K, 101.3 kPa, x1 = 0.8336): 0.674 ± 0.01 mPa·s
viscosity (308.15 K, 101.3 kPa, x1 = 0.9129): 0.69 ± 0.01 mPa·s
viscosity (313.15 K, 101.3 kPa, x1 = 0.1224): 0.49 ± 0.009 mPa·s
viscosity (313.15 K, 101.3 kPa, x1 = 0.2414): 0.512 ± 0.009 mPa·s
viscosity (313.15 K, 101.3 kPa, x1 = 0.3485): 0.534 ± 0.009 mPa·s
viscosity (313.15 K, 101.3 kPa, x1 = 0.4031): 0.547 ± 0.009 mPa·s
viscosity (313.15 K, 101.3 kPa, x1 = 0.5545): 0.584 ± 0.009 mPa·s
viscosity (313.15 K, 101.3 kPa, x1 = 0.657): 0.604 ± 0.01 mPa·s
viscosity (313.15 K, 101.3 kPa, x1 = 0.7413): 0.619 ± 0.01 mPa·s
viscosity (313.15 K, 101.3 kPa, x1 = 0.8336): 0.638 ± 0.01 mPa·s
viscosity (313.15 K, 101.3 kPa, x1 = 0.9129): 0.653 ± 0.01 mPa·s
viscosity (313.15 K, 101.33 kPa, x1 = 0.1037): 0.491 ± 0.004 mPa·s
viscosity (313.15 K, 101.33 kPa, x1 = 0.1731): 0.505 ± 0.004 mPa·s
viscosity (313.15 K, 101.33 kPa, x1 = 0.2947): 0.522 ± 0.004 mPa·s
viscosity (313.15 K, 101.33 kPa, x1 = 0.3985): 0.543 ± 0.004 mPa·s
viscosity (313.15 K, 101.33 kPa, x1 = 0.4729): 0.56 ± 0.004 mPa·s
viscosity (313.15 K, 101.33 kPa, x1 = 0.6004): 0.583 ± 0.005 mPa·s
viscosity (313.15 K, 101.33 kPa, x1 = 0.7147): 0.604 ± 0.005 mPa·s
viscosity (313.15 K, 101.33 kPa, x1 = 0.7974): 0.622 ± 0.005 mPa·s
viscosity (313.15 K, 101.33 kPa, x1 = 0.8981): 0.643 ± 0.005 mPa·s

ClC(Cl)=C(Cl)Cl + Cc1ccccc1
viscosity (303.15 K, 101 kPa, x1 = 0.1502): 0.551 ± 0.013 mPa·s
viscosity (303.15 K, 101 kPa, x1 = 0.2552): 0.574 ± 0.006 mPa·s
viscosity (303.15 K, 101 kPa, x1 = 0.2612): 0.574 ± 0.012 mPa·s
viscosity (303.15 K, 101 kPa, x1 = 0.3392): 0.597 ± 0.006 mPa·s
viscosity (303.15 K, 101 kPa, x1 = 0.3745): 0.599 ± 0.012 mPa·s
viscosity (303.15 K, 101 kPa, x1 = 0.4608): 0.621 ± 0.006 mPa·s
viscosity (303.15 K, 101 kPa, x1 = 0.4715): 0.629 ± 0.011 mPa·s
viscosity (303.15 K, 101 kPa, x1 = 0.5666): 0.662 ± 0.01 mPa·s
viscosity (303.15 K, 101 kPa, x1 = 0.5759): 0.652 ± 0.006 mPa·s
viscosity (303.15 K, 101 kPa, x1 = 0.6428): 0.691 ± 0.01 mPa·s
viscosity (303.15 K, 101 kPa, x1 = 0.6834): 0.688 ± 0.007 mPa·s
viscosity (303.15 K, 101 kPa, x1 = 0.6905): 0.708 ± 0.01 mPa·s
viscosity (303.15 K, 101 kPa, x1 = 0.7448): 0.706 ± 0.007 mPa·s
viscosity (303.15 K, 101 kPa, x1 = 0.7529): 0.73 ± 0.009 mPa·s
viscosity (303.15 K, 101 kPa, x1 = 0.8376): 0.76 ± 0.009 mPa·s
viscosity (303.15 K, 101 kPa, x1 = 0.8395): 0.738 ± 0.007 mPa·s
viscosity (303.15 K, 101 kPa, x1 = 0.9336): 0.793 ± 0.008 mPa·s

O=[N+]([O-])c1ccccc1 + Cc1ccccc1
viscosity (298.15 K, 101 kPa, x1 = 0.115): 0.622 ± 0.006 mPa·s
viscosity (298.15 K, 101 kPa, x1 = 0.227): 0.702 ± 0.006 mPa·s
viscosity (298.15 K, 101 kPa, x1 = 0.344): 0.803 ± 0.007 mPa·s
viscosity (298.15 K, 101 kPa, x1 = 0.457): 0.894 ± 0.008 mPa·s
viscosity (298.15 K, 101 kPa, x1 = 0.577): 1.03 ± 0.009 mPa·s
viscosity (298.15 K, 101 kPa, x1 = 0.675): 1.169 ± 0.01 mPa·s
viscosity (298.15 K, 101 kPa, x1 = 0.787): 1.374 ± 0.012 mPa·s
viscosity (298.15 K, 101 kPa, x1 = 0.87): 1.542 ± 0.013 mPa·s
viscosity (303.15 K, 101 kPa, x1 = 0.115): 0.586 ± 0.005 mPa·s
viscosity (303.15 K, 101 kPa, x1 = 0.227): 0.66 ± 0.006 mPa·s
viscosity (303.15 K, 101 kPa, x1 = 0.344): 0.743 ± 0.007 mPa·s
viscosity (303.15 K, 101 kPa, x1 = 0.457): 0.837 ± 0.007 mPa·s
viscosity (303.15 K, 101 kPa, x1 = 0.577): 0.956 ± 0.008 mPa·s
viscosity (303.15 K, 101 kPa, x1 = 0.675): 1.08 ± 0.009 mPa·s
viscosity (303.15 K, 101 kPa, x1 = 0.787): 1.252 ± 0.011 mPa·s
viscosity (303.15 K, 101 kPa, x1 = 0.87): 1.42 ± 0.012 mPa·s
viscosity (308.15 K, 101 kPa, x1 = 0.115): 0.554 ± 0.005 mPa·s
viscosity (308.15 K, 101 kPa, x1 = 0.227): 0.618 ± 0.006 mPa·s
viscosity (308.15 K, 101 kPa, x1 = 0.344): 0.694 ± 0.006 mPa·s
viscosity (308.15 K, 101 kPa, x1 = 0.457): 0.783 ± 0.007 mPa·s
viscosity (308.15 K, 101 kPa, x1 = 0.577): 0.922 ± 0.008 mPa·s
viscosity (308.15 K, 101 kPa, x1 = 0.675): 1.042 ± 0.009 mPa·s
viscosity (308.15 K, 101 kPa, x1 = 0.787): 1.157 ± 0.01 mPa·s
viscosity (308.15 K, 101 kPa, x1 = 0.87): 1.313 ± 0.011 mPa·s

ClC(Cl)=C(Cl)Cl + ClC(Cl)(Cl)Cl
viscosity (298.15 K, 101 kPa, x2 = 0.0973): 0.8311 ± 0.0071 mPa·s
viscosity (298.15 K, 101 kPa, x2 = 0.1594): 0.8241 ± 0.007 mPa·s
viscosity (298.15 K, 101 kPa, x2 = 0.244): 0.8182 ± 0.007 mPa·s
viscosity (298.15 K, 101 kPa, x2 = 0.3103): 0.8153 ± 0.0069 mPa·s
viscosity (298.15 K, 101 kPa, x2 = 0.4139): 0.813 ± 0.0069 mPa·s
viscosity (298.15 K, 101 kPa, x2 = 0.4636): 0.8122 ± 0.0069 mPa·s
viscosity (298.15 K, 101 kPa, x2 = 0.5633): 0.814 ± 0.0069 mPa·s
viscosity (298.15 K, 101 kPa, x2 = 0.63): 0.8216 ± 0.007 mPa·s
viscosity (298.15 K, 101 kPa, x2 = 0.6339): 0.8211 ± 0.007 mPa·s
viscosity (298.15 K, 101 kPa, x2 = 0.7582): 0.8392 ± 0.0071 mPa·s
viscosity (298.15 K, 101 kPa, x2 = 0.8067): 0.8482 ± 0.0072 mPa·s
viscosity (298.15 K, 101 kPa, x2 = 0.9135): 0.8744 ± 0.0074 mPa·s
viscosity (303.15 K, 101.33 kPa, x1 = 0.3238): 0.818 ± 0.007 mPa·s
viscosity (303.15 K, 101.33 kPa, x1 = 0.402): 0.814 ± 0.007 mPa·s
viscosity (303.15 K, 101.33 kPa, x1 = 0.56): 0.808 ± 0.007 mPa·s
viscosity (303.15 K, 101.33 kPa, x1 = 0.6543): 0.801 ± 0.007 mPa·s
viscosity (303.15 K, 101.33 kPa, x1 = 0.7629): 0.8 ± 0.007 mPa·s
viscosity (303.15 K, 101.33 kPa, x1 = 0.8308): 0.798 ± 0.007 mPa·s
viscosity (303.15 K, 101.33 kPa, x1 = 0.9128): 0.797 ± 0.007 mPa·s
